For data set [1], the system named is Candida albicans. Particulars: cited from earlier work.
Data set [2] has as its system Gardnerella vaginalis. Put plainly: MIC against Gardnerella vaginalis (ATCC 14018 and 11 clinical isolates), standard two-fold dilution. The data set is classed as cell-based. The following applies: for NUMBER OF STRAINS WITH MIC OF 8: MIC 8 mcg/ml; for NUMBER OF STRAINS WITH MIC OF 16: MIC 16 mcg/ml; for NUMBER OF STRAINS WITH MIC OF 32: MIC 32 mcg/ml; for NUMBER OF STRAINS WITH MIC OF 64: MIC 64 mcg/ml; for NUMBER OF STRAINS WITH MIC OF 4: MIC 4 mcg/ml.
Procedure: The strains were grown on Casman medium (Difco) plus 5% (v/v) whole rabbit blood and 0.15 (v/v) lysed rabbit blood. Inoculum size: approximately 10^4 colony forming units per spot. Incubation in an anaerobic hood: 48 hours at 37° C.

The test system of data set [3] is yeasts. The following applies: cited from earlier work.
For data set [4], the system named is Trichomonas vaginalis. The following applies: cited from earlier work.
For data set [5], the system named is Gardnerella vaginalis. Particulars: cited from earlier work.
Data set [6] concerns Bacteroides fragilis ATCC 23745. Nature of the data set: MIC against Bacteroides fragilis, two-fold dilution method. The data set is classed as cell-based. Particulars: ATCC23745, anaerobic, 48 hours at 37° C., Wilkins-Chalgren broth, approximately 10^4 CFU/ml. How it is done: A further experiment representative of the activity of purpuromycin against other anaerobic bacteria which are usually associated with infectious vaginitis utilized Bacteroides fragilis ATCC […] as the test microorganism. The experiment was carried out by the two-fold dilution method in microliter plates using Wilkins-Chalgren broth (Difco).
Inoculum size: approximately 10^4 colony forming units/ml. Incubation in an anerobic hood: 48 hours at 37° C. Purpuromycin was dissolved in DMSO and was added to the culture medium as above.

Data set [7] has as its system Gram-positive bacteria. Particulars: in vitro; cited from earlier work.
The test system of data set [8] is Candida albicans strain SKF 2270. Put plainly: Topical treatment of yeast vaginal infection in ovariectomized rats. The data set is classed as in vivo, rat. Particulars: topical intravaginal; for Mean log10 CFU/smear sample ± SD: twice daily for three days, untreated 3.43 ± 0.55, vehicle 3.74 ± 0.60. Here is the method:
The effectiveness of purpuromycin in the topical treatment of yeast vaginal infection was also tested in ovariectomized rats (Charles River) treated subcutaneously with 4 mg of estradiol benzoate approximately two weeks after ovariectomy. Five days later they were inoculated intravaginally with approximately 5×10^6 colony forming units (CFU) of Candida albicans strain SKF 2270 in 25 microliters of Nutrient Broth (no.2, Oxoid) containing 15% (vol/vol) of glycerol. Topical intravaginal therapy was twice daily for three days, starting one day after infection, with 100 microliters of a purpuromycin suspension in a mixture of 10:90 DMSO-polyethylene glycol 400, corresponding to 2 or 5 mg/rat/treatment. The day after the last treatment, vaginal smear samples (calibrated 10 microliter loops) were diluted and plated for viable organism counts on Sabouraud agar (Difco). Each group contained 10 animals.

A short description of data set [9]: Solubility. Type of data set: physicochemical.
For data set [10], the system named is fungi, including filamentous fungi (e.g., Trichophyton mentagrophytes) and yeasts e.g., Candida albicans. The following applies: in vitro; cited from earlier work.
Data set [11] has as its system Gram-negative bacteria. The following applies: in vitro; cited from earlier work.
[12] abbreviates: 12 strains tested, anaerobic, 48 hours at 37° C.
[13] abbreviates: MIC >128 mcg/ml, 12 strains tested, anaerobic, 48 hours at 37° C.

We go through 24 compounds from US5141953A, “Purpuromycin for the treatment of vaginal infections and pharmaceutical dosage forms for said use” (Gruppo Lepetit S.p.A., priority 1989, dated 1992).

In brackets after ≈: the same amount, converted by molar mass. Like-named read-outs stand apart in the source and are kept apart here.

Take `C[C@@H]1[C@H](O)[C@@H](C)/C=C/C=C/C=C/C=C/C=C/C=C/C=C/[C@H](O[C@@H]2O[C@H](C)[C@@H](O)[C@H](N)[C@@H]2O)C[C@@H]2O[C@](O)(C[C@@H](O)C[C@@H](O)[C@H](O)CC[C@@H](O)C[C@@H](O)CC(=O)O[C@H]1C)C[C@H](O)[C@H]2C(=O)O` [Amphotericin B]: in data set [1], the “effectiveness against Candida albicans infections” value (from here on “effectiveness”) is “effective”.
In the case of `Clc1ccccc1C(c1ccccc1)(c1ccccc1)n1ccnc1` [Clotrimazole], in data set [2] (setting [12]), the “NUMBER OF STRAINS WITH MIC OF 8” value is listed as 2 strains, the “NUMBER OF STRAINS WITH MIC OF 16” value stood at 1 strains, the “NUMBER OF STRAINS WITH MIC OF 32” value amounted to 2 strains and the “NUMBER OF STRAINS WITH MIC OF 64” value amounted to 5 strains. Moreover, the “NUMBER OF STRAINS WITH MIC OF >128” value in [2] (setting [13]) is on record as 2 strains. For the same compound, in data set [1], the “effectiveness” value is recorded as “effective”.
With `CC(=O)N1CCN(c2ccc(OCC3COC(Cn4ccnc4)(c4ccc(Cl)cc4Cl)O3)cc2)CC1` (centres unmarked) [Ketoconazole], the “effectiveness” value in data set [1] is “effective”.
On to `Cc1ncc([N+](=O)[O-])n1CCO` [Metronidazole], for which, in data set [3], the activity against yeasts result is listed as “not active”. For the same compound, in data set [2] (setting [12]), the “NUMBER OF STRAINS WITH MIC OF 4” value is recorded as 1 strains, the “NUMBER OF STRAINS WITH MIC OF 8” value came out at 3 strains, the “NUMBER OF STRAINS WITH MIC OF 16” value was determined as 4 strains and the “NUMBER OF STRAINS WITH MIC OF 64” value was 1 strains. The “NUMBER OF STRAINS WITH MIC OF 128” value in [2] (MIC 128 mcg/ml, 12 strains tested, anaerobic, 48 hours at 37° C.) came to 3 strains. Besides, in [4], the “activity against Trichomonas vaginalis” value is “active”. Further, the “activity against Gardnerella vaginalis” value in [5] is recorded as “active”.
In the case of `Clc1ccc(COC(Cn2ccnc2)c2ccc(Cl)cc2Cl)c(Cl)c1` (centres unmarked) [Miconazole], the MIC in data set [2] (Gardnerella vaginalis, strains resistant to the agent, read-out: MIC (on resistant strains)) is 128 µg/mL (≈ 308 µM). Also, in data set [2] (setting [12]), the “NUMBER OF STRAINS WITH MIC OF 4” value is 1 strains, the “NUMBER OF STRAINS WITH MIC OF 8” value is 7 strains and the “NUMBER OF STRAINS WITH MIC OF 32” value came out at 2 strains. Also, the “NUMBER OF STRAINS WITH MIC OF >128” value in data set [2] (setting [13]) came to 2 strains. Also, the “effectiveness” value in data set [1] is “effective”.
As to `C[C@@H]1[C@H](O)[C@@H](C)/C=C/C=C/CC/C=C/C=C/C=C/C=C/C(O[C@H]2O[C@H](C)[C@@H](O)[C@H](N)[C@@H]2O)CC2O[C@](O)(CC(O)C(O)CCC(O)CC(O)CC(O)CC(=O)O[C@H]1C)CC(O)C2C(=O)O` (some centres unmarked) [Nystatin], in [2], the “NUMBER OF STRAINS WITH MIC OF >128” value is 12 strains. Besides, the “effectiveness” value in data set [1] is given as “effective”.
In the case of `COC(=O)c1cc2cc3c(c(O)c2c(=O)o1)OC1(Cc2c(O)c4c(c(O)c2O1)C(=O)C(OC)=CC4=O)CC3O` (centres unmarked) [Purpuromycin], the MIC in data set [6] was 0.25 µg/mL (≈ 0.464 µM); in data set [2] (48 h, all 12 Gardnerella vaginalis strains, read-out: concentration that inhibits the growth of all tested strains) it was 8 µg/mL (≈ 14.9 µM). In addition, the “activity against Gram-positive bacteria” value in [7] is recorded as “active”. The “NUMBER OF STRAINS WITH MIC OF 8” value in data set [2] (setting [12]) was determined as 12 strains. Besides, the “activity on strains resistant to metronidazole, nystatin and miconozole” value in data set [2] (resistant strains) is listed as “active”. The “Mean log10 CFU/smear sample ± SD” value in data set [8] (2 mg/rat/treatment) worked out at 2.00 ± 0.75 log10 CFU/smear sample; in data set [8] (5 mg/rat/treatment, *P <0.01 vs group 1 controls) it was 2.28 ± 0.78 log10 CFU/smear sample. Further, in data set [8] (2 or 5 mg/rat/treatment), the “numbers of viable yeast cells/sample” value was “significantly reduced”. In data set [9] (lower alkanols), the “solubility in lower alkanols” value is on record as “practically unsoluble”. The solubility in water entry in [9] (water) is “practically unsoluble”. Besides, the activity against fungi result in data set [10] was “active”. For the same compound, in data set [11], the “activity against Gram-negative bacteria” value is “active”.
For `CC1(C)S[C@@H]2[C@H](NC(=O)[C@H](N)c3ccccc3)C(=O)N2[C@H]1C(=O)O` [ampicillin], the “activity against Gardnerella vaginalis” value in data set [5] was “active”.
As for `CC1=C(C(=O)O)N2C(=O)[C@@H](NC(=O)[C@H](N)c3ccccc3)[C@H]2SC1` [cefalexin], the “activity against Gardnerella vaginalis” value in data set [5] is recorded as “active”.
For the compound `CO[C@@]1(NC(=O)Cc2cccs2)C(=O)N2C(C(=O)O)=C(COC(N)=O)CS[C@@H]21` [cefoxitin], in data set [5], the “activity against Gardnerella vaginalis” value is on record as “active”.
For the compound `O=C(Cc1cccs1)N[C@@H]1C(=O)N2C(C(=O)[O-])=C(C[n+]3ccccc3)CS[C@H]12` [cephaloridine], the “activity against Gardnerella vaginalis” value in data set [5] was “active”.
In the case of `O=C(N[C@H](CO)[C@H](O)c1ccc([N+](=O)[O-])cc1)C(Cl)Cl` [chloramphenicol], in [5], the “activity against Gardnerella vaginalis” value was “active”.
As for `CCC[C@@H]1C[C@@H](C(=O)N[C@@H]([C@H]2O[C@H](SC)[C@H](O)[C@@H](O)[C@H]2O)[C@H](C)Cl)N(C)C1` [clindamycin], the “activity against Gardnerella vaginalis” value in data set [5] was “active”.
As to `Clc1ccc(COC(Cn2ccnc2)c2ccc(Cl)cc2Cl)cc1` (centres unmarked) [econozole], in data set [1], the “effectiveness” value is given as “effective”.
For the compound `CC[C@H]1OC(=O)[C@H](C)[C@@H](O[C@H]2C[C@@](C)(OC)[C@@H](O)[C@H](C)O2)[C@H](C)[C@@H](O[C@@H]2O[C@H](C)C[C@H](N(C)C)[C@H]2O)[C@](C)(O)C[C@@H](C)C(=O)[C@H](C)[C@@H](O)[C@]1(C)O` [erythromycin], the “activity against Gardnerella vaginalis” value in [5] is given as “active”.
For the compound `OC(Cn1cncn1)(Cn1cncn1)c1ccc(F)cc1F` [fluconazole], the “effectiveness” value in data set [1] is listed as “effective”.
Turning to `CN(C)c1ccc(C(=C2C=CC(=[N+](C)C)C=C2)c2ccc(N(C)C)cc2)cc1` [gentian violet], the “effectiveness” value in data set [1] is given as “effective”.
Turning to `CC1(C)S[C@@H]2[C@H](NC(=O)Cc3ccccc3)C(=O)N2[C@H]1C(=O)O` [penicillin G], the “activity against Gardnerella vaginalis” value in data set [5] is on record as “active”.
For the compound `CN[C@@H]1[C@H](O)[C@H](NC)[C@H]2O[C@@]3(O)C(=O)C[C@@H](C)O[C@H]3O[C@@H]2[C@H]1O` [spectinomycin], the “activity against Gardnerella vaginalis” value in data set [5] is reported as “active”.
For `Cc1cc(NS(=O)(=O)c2ccc(N)cc2)no1` [sulfamethoxazole], the “activity against Gardnerella vaginalis” value in data set [5] is “active”.
Consider `CN(C)C1C(=O)C(C(N)=O)=C(O)C2(O)C(=O)C3=C(O)c4c(O)cccc4C(C)(O)C3CC12` (centres unmarked) [tetracycline], for which, in [5], the “activity against Gardnerella vaginalis” value is listed as “active”.
For `CCS(=O)(=O)CCn1c([N+](=O)[O-])cnc1C` [tinidazole], the “activity against Trichomonas vaginalis” value in [4] was “active”.
With candicidin, in [1], the “effectiveness” value was “effective”.
In the case of gentamicin, the “activity against Gardnerella vaginalis” value in [5] is “active”.
